# Reference: patent publication US10954216B2, “BMP-signal-inhibiting compound” (RIKEN, priority 2016, dated 2021)
# Test system: BMP signal in MDA-231-D-BREFluc/Rluc cells
# Assay: BMP signal inhibitory effect (AlphaScreen SureFire SMAD1 p-Ser463/465, BMP-6 stimulation)
# Format: cell-based
# Conditions: not given
# Description: BMP Signal Inhibitory Effect
# A BMP signal inhibitory activity of a compound of the present invention was evaluated according to the following method.
# MDA-231-D-BREFluc/Rluc cells prepared according to the method described in Y. Katsuno et al., Oncogene, 27, 6322 (2008) were incubated at 37° C. for 2 hours together with test compounds, and BMP-6 (commercially available from R&D System, 507-BM-020) was then added thereto, and the mixture was additionally incubated at 37° C. for 30 minutes. A Lysis Buffer and Acceptor mix of AlphaScreen SureFire SMAD1 (p-Ser463/465) assay kit (commercially available from Perkin Elmer, TGRSM1S10K) were sequentially added thereto, the mixture was incubated at room temperature for 2 hours, and AlphaScreen Protein A kit (commercially available from Perkin Elmer, 6760617) was then added thereto, and standard AlphaScreen settings of Alpha Technology—compatible plate reader (commercially available from Perkin Elmer, EnSpire) was used for measurement.
row,Compound,IC50
1,"CCn1cc(-c2ccnc(Nc3ccc(C4CC5CCC(C4)N5CCOC)cc3)n2)c(-c2cccnc2)n1 (centres unmarked) [Example 85, 4-(1-Ethyl-3-(pyridin-3-yl)-1H-pyrazol-4-yl)-N-(4-(8-(2-methoxyethyl)-8-azabicyclo [3.2.1]octan-3-yl)phenyl)pyrimidin-2-amine]",7.3 nM
2,"CCn1cc(-c2ccnc(Nc3ccc(OC4CC5CCC(C4)N5)cc3)n2)c(-c2cccnc2)n1 (centres unmarked) [Example 146, N-(4-((8-Azabicyclo[3.2.1]octan-3-yl)oxy)phenyl)-4-(1-ethyl-3-(pyridin-3-yl)-1H-pyrazol-4-yl)pyrimidin-2-amine]",13.5 nM
3,"CCn1cc(-c2ccnc(Nc3ccc(N4CC5CCC(C4)N5CCOC)cc3)n2)c(-c2cccnc2)n1 [Example 86, 4-(1-Ethyl-3-(pyridin-3-yl)-1H-pyrazol-4-yl)-N-(4-(8-(2-methoxyethyl)-3,8-diazabicyclo[3.2.1]octan-3-yl)phenyl)pyrimidin-2-amine]",12.9 nM

# Same assay, conditions: BMP-6 stimulated MDA-231-D-BREFluc/Rluc cells, phospho-SMAD1 AlphaScreen; read-out: IC50
row,IC50,Compound
1,15.8 nM,"CCn1cc(-c2ccnc(Nc3ccc(N4CCC[C@H](N)C4)cc3)n2)c(-c2cccnc2)n1 [Example 160, (S)-N-(4-(3-Aminopiperidin-1-yl)phenyl)-4-(1-ethyl-3-(pyridin-3-yl)-1H-pyrazol-4-yl)pyrimidin-2-amine]"
2,17.3 nM,"CCn1cc(-c2ccnc(Nc3cccc(N4CCN(C)CC4)c3)n2)c(-c2cccnc2)n1 [Example 34, 4-(1-ethyl-3-(pyridin-3-yl)-1H-pyrazol-4-yl)-N-(3-(4-methylpiperazin-1-yl)phenyl)pyrimidin-2-amine]"
3,12.1 nM,"CCn1cc(-c2ccnc(Nc3ccc(C4CCN(C)CC4)c(F)c3)n2)c(-c2cccnc2)n1 [Example 45, 4-(1-ethyl-3-(pyridin-3-yl)-1H-pyrazol-4-yl)-N-(3-fluoro-4-(1-methylpiperidin-4-yl)phenyl)pyrimidin-2-amine]"
4,144 nM,"CCn1cc(-c2ccnc(Nc3ccc4c(n3)CCN(C)C4)n2)c(-c2cccnc2)n1 [Example 7, N-(4-(1-ethyl-3-(pyridin-3-yl)-1H-pyrazol-4-yl)pyrimidin-2-yl)-6-methyl-5,6,7,8-tetrahydro-1,6-naphthyridin-2-amine]"
5,23.6 nM,"CCn1cc(-c2ccnc(Nc3cccc(C(=O)N4CCN(C(C)C)CC4)c3)n2)c(-c2cccnc2)n1 [Example 122, (3-((4-(1-Ethyl-3-(pyridin-3-yl)-1H-pyrazol-4-yl)pyrimidin-2-yl)amino)phenyl)(4-isopropylpiperazin-1-yl)methanone]"
6,24.9 nM,CC(C)(O)Cn1cc(-c2ccnc(Nc3ccc(C4CCN(C5COC5)CC4)cc3)n2)c(-c2cccnc2)n1 [Example 132]
7,14.1 nM,"CCn1cc(-c2ccnc(Nc3ccc(N4CCC(N)CC4)cc3)n2)c(-c2cccnc2)n1 [Example 147, N-(4-(4-Aminopiperidin-1-yl)phenyl)-4-(1-ethyl-3-(pyridin-3-yl)-1H-pyrazol-4-yl)pyrimidin-2-amine]"
8,6.5 nM,"CCn1cc(-c2ccnc(Nc3cc(F)c(N4CCNCC4)c(F)c3)n2)c(-c2cccnc2)n1 [Example 153, N-(3,5-Difluoro-4-(piperazin-1-yl)phenyl)-4-(1-ethyl-3-(pyridin-3-yl)-1H-pyrazol-4-yl)pyrimidin-2-amine]"
9,37 nM,"CCn1cc(-c2ccnc(Nc3ccc(N4CCN(C(=O)CO)CC4)cc3)n2)c(-c2cccnc2)n1 [Example 174, 1-(4-(4-((4-(1-ethyl-3-(pyridin-3-yl)-1H-pyrazol-4-yl)pyrimidin-2-yl)amino)phenyl)piperazin-1-yl)-2-hydroxyethan-1-one]"
10,11.2 nM,"CCn1cc(-c2ccnc(Nc3ccc(-n4nc(C)nc4C)cc3)n2)c(-c2cccnc2)n1 [Example 39, N-(4-(3,5-dimethyl-1H-1,2,4-triazol-1-yl)phenyl)-4-(1-ethyl-3-(pyridin-3-yl)-1H-pyrazol-4-yl)pyrimidin-2-amine]"
11,20 nM,"CCn1cc(-c2ccnc(Nc3ccc(N4CCN(CC5COC5)CC4)cc3)n2)c(-c2cccnc2)n1 [Example 99, 4-(1-Ethyl-3-(pyridin-3-yl)-1H-pyrazol-4-yl)-N-(4-(4-(oxetan-3-ylmethyl)piperazin-1-yl)phenyl)pyrimidin-2-amine]"
12,36.4 nM,"CCn1cc(-c2ccnc(Nc3ccc(-c4cn5ccccc5n4)cc3)n2)c(-c2cccnc2)n1 [Example 14, 4-(1-ethyl-3-(pyridin-3-yl)-1H-pyrazol-4-yl)-N-(4-(imidazo[1,2-a]pyridin-2-yl)phenyl)pyrimidin-2-amine]"
13,39 nM,"CC(=O)N1CCN(C(=O)c2ccc(Nc3nccc(-c4cn(CCc5ccccc5)nc4-c4cccnc4)n3)cc2)CC1 [Example 74, 1-(4-(4-((4-(1-phenethyl-3-(pyridin-3-yl)-1H-pyrazol-4-yl)pyrimidin-2-yl)amino)benzoyl)piperazin-1-yl)ethan-1-one]"
14,12.6 nM,"CC(C)N1CCN(C(=O)c2ccc(Nc3nccc(-c4cn(CCc5ccccc5)nc4-c4cccnc4)n3)cc2)CC1 [Example 123, (4-lsopropylpiperazin-1-yl) (4-((4-(1-phenethyl-3-(pyridin-3-yl)-1H-pyrazol-4-yl)pyrimidin-2-yl)amino)phenyl) methanone]"
15,15.2 nM,"CCn1cc(-c2ccnc(Nc3ccc(CCN4CCNCC4)cc3)n2)c(-c2cccnc2)n1 [Example 159, 4-(1-Ethyl-3-(pyridin-3-yl)-1H-pyrazol-4-yl)-N-(4-(2-(piperazin-1-yl)ethyl)phenyl)-pyrimidin-2-amine]"
16,40.7 nM,"CCn1cc(-c2ccnc(Nc3ccc(C(=O)N4CCCCC4)cc3)n2)c(-c2cccnc2)n1 [Example 2, (4-((4-(1-ethyl-3-(pyridin-3-yl)-1H-pyrazol-4-yl)pyrimidin-2-yl)amino)phenyl)(piperidin-1-yl)methanone]"
17,7.2 nM,"CCn1cc(-c2ccnc(Nc3ccc4c(c3)CNC4)n2)c(-c2cccnc2)n1 [Example 73, N-(4-(1-ethyl-3-(pyridin-3-yl)-1H-pyrazol-4-yl)pyrimidin-2-yl)isoindolin-5-amine]"
18,3.9 nM,"CN1Cc2ccc(Nc3nccc(-c4cn(CC(C)(C)O)nc4-c4cccnc4)n3)cc2C1 [Example 63, 2-Methyl-1-(4-(2-((2-methylisoindolin-5-yl)amino)pyrimidin-4-yl)-3-(pyridin-3-yl)-1H-pyrazol-1-yl)propan-2-ol]"
19,14.5 nM,"CCn1cc(-c2ccnc(Nc3ccc(-n4ccnc4)cc3)n2)c(-c2cccnc2)n1 [Example 44, N-(4-(1H-Imidazol-1-yl)phenyl)-4-(1-ethyl-3-(pyridin-3-yl)-1H-pyrazol-4-yl)pyrimidin-2-amine]"
20,26.7 nM,"COCCn1cc(-c2ccnc(Nc3ccc(N4CCN(CC5CCCN5C)CC4)cc3)n2)c(-c2cccnc2)n1 (centres unmarked) [Example 80, 4-(1-(2-Methoxyethyl)-3-(pyridin-3-yl)-1H-pyrazol-4-yl)-N-(4-(4-((1-methylpyrrolidin-2-yl)methyl)piperazin-1-yl)phenyl)pyrimidin-2-amine]"
21,36.9 nM,"CCn1cc(-c2ccnc(Nc3ccc(Cn4cncn4)cc3)n2)c(-c2cccnc2)n1 [Example 42, N-(4-((1H-1,2,4-Triazol-1-yl)methyl)phenyl)-4-(1-ethyl-3-(pyridin-3-yl)-1H-pyrazol-4-yl)pyrimidin-2-amine]"
22,13 nM,"COCCN1CCC(c2ccc(Nc3nccc(-c4cn(CCOC)nc4-c4cccnc4)n3)cc2)CC1 [Example 57, 4-(1-(2-methoxyethyl)-3-(pyridin-3-yl)-1H-pyrazol-4-yl)-N-(4-(1-(2-methoxyethyl)piperidin-4-yl)phenyl)pyrimidin-2-amine]"
23,33.7 nM,"CCn1cc(-c2ccnc(Nc3ccc(N4CCN(CC(O)COC)CC4)cc3)n2)c(-c2cccnc2)n1 (centres unmarked) [Example 105, 1-(4-(4-((4-(1-Ethyl-3-(pyridin-3-yl)-1H-pyrazol-4-yl)pyrimidin-2-yl)amino)phenyl)piperazin-1-yl)-3-methoxypropan-2-ol]"
24,11.7 nM,"CCn1cc(-c2ccnc(Nc3ccc(CCN4CCN(C)CC4)cc3)n2)c(-c2cccnc2)n1 [Example 112, 4-(1-ethyl-3-(pyridin-3-yl)-1H-pyrazol-4-yl)-N-(4-(2-(4-methylpiperazin-1-yl)ethyl)phenyl)pyrimidin-2-amine]"
25,7 nM,"CCn1cc(-c2ccnc(Nc3ccc4c(c3)CN(CCOC)C4)n2)c(-c2cccnc2)n1 [Example 61, N-(4-(1-ethyl-3-(pyridin-3-yl)-1H-pyrazol-4-yl)pyrimidin-2-yl)-2-(2-methoxyethyl)isoindolin-5-amine]"
26,0.9 nM,"CCn1cc(-c2ccnc(Nc3cccc(C4CCN(C)CC4)c3)n2)c(-c2cccnc2)n1 [Example 114, 4-(1-Ethyl-3-(pyridin-3-yl)-1H-pyrazol-4-yl)-N-(3-(1-methylpiperidin-4-yl)phenyl)pyrimidin-2-amine]"
27,33.6 nM,"CCn1cc(-c2ccnc(Nc3ccc(-c4cnco4)cc3)n2)c(-c2cccnc2)n1 [Example 70, 4-(1-ethyl-3-(pyridin-3-yl)-1H-pyrazol-4-yl)-N-(4-(oxazol-5-yl)phenyl)pyrimidin-2-amine]"
28,23.5 nM,"CCn1cc(-c2ccnc(Nc3ccc4c(c3)CN(C3COC3)C4)n2)c(-c2cccnc2)n1 [Example 9, N-(4-(1-Ethyl-3-(pyridin-3-yl)-1H-pyrazol-4-yl)pyrimidin-2-yl)-2-(oxetan-3-yl)isoindolin-5-amine]"
29,24.6 nM,"CCn1cc(-c2ccnc(Nc3ccc(-c4cnn(CCOC)c4)cc3)n2)c(-c2cccnc2)n1 [Example 28, 4-(1-Ethyl-3-(pyridin-3-yl)-1H-pyrazol-4-yl)-N-(4-(1-(2-methoxyethyl)-1H-pyrazol-4-yl)phenyl)pyrimidin-2-amine]"
